Assay results published in patent US10035777B2, “Heterocyclic kinase inhibitors” (priority 2014, dated 2018).
Like-named read-outs stand apart in the source and are kept apart here.

Target: GST-Xa-hAAK1 (Homo sapiens (Human), UniProt Q2M2I8)
Experiment: biochemical
Experimental: The assays were performed in U-bottom 384-well plates. […] The reactions were initiated by the combination of bacterially expressed, GST-Xa-hAAK1 with substrates and test compounds. The reactions were incubated at room temperature for 3 hours and terminated by adding 60 μl of 35 mM EDTA buffer to each sample. The reactions were analyzed on the Caliper LabChip 3000 (Caliper, Hopkinton, Mass.) by electrophoretic separation of the fluorescent substrate and phosphorylated product. […] Compounds were dissolved at 10 mM in dimethylsulfoxide (DMSO) and evaluated at eleven concentrations. IC50 values were derived by non-linear regression analysis.

[1] = ATP 22 μM, GST-Xa-hAAK1 3.5 nM, room temperature for 3 hours, Caliper LabChip 3000, read-out: AAK1 IC50

Chain of GST-Xa-hAAK1 (Q2M2I8 whole entry): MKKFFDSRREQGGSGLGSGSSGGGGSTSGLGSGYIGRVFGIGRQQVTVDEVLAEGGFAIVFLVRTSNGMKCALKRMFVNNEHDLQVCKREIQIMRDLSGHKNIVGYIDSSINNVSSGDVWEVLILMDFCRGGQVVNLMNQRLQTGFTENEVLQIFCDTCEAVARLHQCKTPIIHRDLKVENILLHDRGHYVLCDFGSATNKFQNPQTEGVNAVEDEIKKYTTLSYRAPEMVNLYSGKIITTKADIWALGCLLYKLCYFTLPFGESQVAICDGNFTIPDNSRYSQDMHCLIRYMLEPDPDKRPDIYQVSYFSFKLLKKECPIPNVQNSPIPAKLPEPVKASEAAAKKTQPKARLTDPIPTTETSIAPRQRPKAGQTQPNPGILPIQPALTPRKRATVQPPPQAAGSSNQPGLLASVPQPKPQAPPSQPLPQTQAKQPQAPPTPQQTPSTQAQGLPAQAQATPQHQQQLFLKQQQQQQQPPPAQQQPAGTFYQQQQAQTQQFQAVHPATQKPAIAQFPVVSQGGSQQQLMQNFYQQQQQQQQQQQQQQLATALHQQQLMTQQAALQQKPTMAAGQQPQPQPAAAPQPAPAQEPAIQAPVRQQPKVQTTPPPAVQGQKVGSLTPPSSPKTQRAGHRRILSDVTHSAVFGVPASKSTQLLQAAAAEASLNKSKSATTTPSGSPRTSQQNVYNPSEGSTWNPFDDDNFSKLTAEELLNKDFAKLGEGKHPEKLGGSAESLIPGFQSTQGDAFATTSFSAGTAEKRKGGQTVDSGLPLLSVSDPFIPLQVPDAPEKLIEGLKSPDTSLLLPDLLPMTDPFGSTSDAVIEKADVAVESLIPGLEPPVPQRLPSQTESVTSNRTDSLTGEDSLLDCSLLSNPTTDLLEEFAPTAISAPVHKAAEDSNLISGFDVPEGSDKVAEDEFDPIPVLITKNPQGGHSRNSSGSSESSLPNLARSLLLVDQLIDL

Row | Molecule | IC50 [1] [µM] | IC50 [µM] | also measured
1 | CCn1c([C@H](N)CC(C)C)nc2cc(-c3ccncc3)ccc21 [Example 45, (R)-1-(1-ethyl-5-(pyridin-4-yl)-1H-benzo[d]imidazol-2-yl)-3-methylbutan-1-amine] | 0.749 | – | –
2 | COCCN[C@H](CC(C)C)c1nc2cc(-c3cnco3)ccc2[nH]1 [Example 102, (R)-N-(2-methoxyethyl)-3-methyl-1-(5-(oxazol-5-yl)-1H-benzo[d]imidazol-2-yl)butan-1-amine] | 0.68 | – | –
3 | N[C@@H](c1nc2cc(-c3ccncc3)ccc2[nH]1)C1CCOCC1 [Example 77, (R)-(5-(pyridin-4-yl)-1H-benzo[d]imidazol-2-yl) (tetrahydro-2H-pyran-4-yl) methanamine] | – | 0.436 | –
4 | CC(C)CCc1nc2ccc(-c3cnco3)cc2o1 [Example 100, 2-isopentyl-6-(oxazol-5-yl)benzo[d]oxazole] | – | 1.02 | –
5 | CC(C)C[C@@H](N)c1nc2ccc(-c3ccncc3)cc2n1CCO [Example 40, (R)-2-(2-(1-amino-3-methylbutyl)-6-(pyridin-4-yl)-1H-benzo[d]imidazol-1-yl)ethanol] | 0.271 | – | –
6 | CC(C)C[C@@H](N)c1nc2cc(-c3cc[nH]n3)ccc2[nH]1 [Example 3, (R)-1-(5-(1H-pyrazol-3-yl)-1H-benzo[d]imidazol-2-yl)-3-methylbutan-1-amine] | – | 0.056 | –
7 | COc1cc2[nH]c(C(C)(N)CC(C)C)nc2cc1-c1cnco1 (stereo not drawn) [Example 108, 2-(6-methoxy-5-(oxazol-5-yl)-1H-benzo[d]imidazol-2-yl)-4-methylpentan-2-amine] | 0.06 | – | –
8 | CC(C)C[C@@H](N)c1nc2cc(-c3ccncc3)ccc2s1 [Example 96, (R)-3-methyl-1-(5-(pyridin-4-yl)benzo[d]thiazol-2-yl)butan-1-amine] | 0.797 | – | –
9 | CCn1c([C@H](N)CC(C)C)nc2ccc(-c3cnco3)cc21 [Example 32, (R)-1-(1-ethyl-6-(oxazol-5-yl)-1H-benzo[d]imidazol-2-yl)-3-methylbutan-1-amine] | 0.45 | – | –
10 | CC(C(N)c1nc2ccc(-c3ccncc3)cc2[nH]1)C(F)(F)F (single isomer, unassigned) [Example 53, 3,3,3-trifluoro-2-methyl-1-(6-(pyridin-4-yl)-1H-benzo[d]imidazol-2-yl)propan-1-amine] | 0.521 | – | –
11 | CC(C)C[C@@H](NCC(F)(F)F)c1nc2cc(-c3ccncc3)ccc2[nH]1 [Example 66, 3-methyl-1-(5-(pyridin-4-yl)-1H-benzo[d]imidazol-2-yl)-N-(2,2,2-trifluoroethyl)butan-1-amine] | – | – | IC50 (read-out: AAK1 IC50): 0.045 µM
12 | COc1cnccc1-c1ccc2oc(C(N)CC(C)C)nc2c1 (stereo not drawn) [Example 94, 1-(5-(3-methoxypyridin-4-yl)benzo[d]oxazol-2-yl)-3-methylbutan-1-amine] | 0.294 | – | –
13 | CC(C)C[C@H](N)c1nc2cc(-c3cnco3)ccc2[nH]1 [Example 5, (S)-3-methyl-1-(5-(oxazol-5-yl)-1H-benzo[d]imidazol-2-yl)butan-1-amine] | 0.093 | – | –
14 | CC1(C)CC1c1nc2ccc(-c3ccncc3)cc2[nH]1 (stereo not drawn) [Example 49, 2-(2,2-dimethylcyclopropyl)-6-(pyridin-4-yl)-1H-benzo[d]imidazole] | – | 0.338 | –
15 | COc1cc2[nH]c([C@H](N)C3CCCC3)nc2cc1-c1ccncc1 [Example 82, (R)-cyclopentyl(6-methoxy-5-(pyridin-4-yl)-1H-benzo[d]imidazol-2-yl)methanamine] | – | 1.8 | –
16 | CC(C)CC(C)c1nc2cc(-c3ccncc3)ccc2o1 (stereo not drawn) [Example 88, 2-(4-methylpentan-2-yl)-5-(pyridin-4-yl)benzo[d]oxazole] | 0.062 | – | –
17 | CC(C)C[C@@H](N)c1nc2ccc(-c3cnco3)cc2n1CC(F)(F)F [Example 36, (R)-3-methyl-1-(6-(oxazol-5-yl)-1-(2,2,2-trifluoroethyl)-1H-benzo[d]imidazol-2-yl)butan-1-amine] | 0.172 | – | –
18 | CC(C)C[C@@H](NC(=O)C(F)(F)F)c1nc2cc(-c3ccncc3)ccc2[nH]1 [Example 80, (R)-2,2,2-trifluoro-N-(3-methyl-1-(5-(pyridin-4-yl)-1H-benzo[d]imidazol-2-yl)butyl)acetamide] | – | 0.697 | –
19 | CC(C)CC(CN)c1nc2cc(-c3ccncc3)ccc2[nH]1 (stereo not drawn) [Example 67, 4-methyl-2-(5-(pyridin-4-yl)-1H-benzo[d]imidazol-2-yl) pentan-1-amine] | – | 0.049 | –
20 | COc1cnccc1-c1cc(OC)c2[nH]c([C@H](N)CC(C)C)nc2c1 [Example 23, (R)-1-(7-methoxy-5-(3-methoxypyridin-4-yl)-1H-benzo[d]imidazol-2-yl)-3-methylbutan-1-amine] | 0.553 | – | –
21 | COc1cnccc1-c1ccc2nc([C@H](N)CC(C)C)n(CC(F)(F)F)c2c1 [Example 35, (R)-1-(6-(3-methoxypyridin-4-yl)-1-(2,2,2-trifluoroethyl)-1H-benzo[d]imidazol-2-yl)-3-methylbutan-1-amine] | 0.025 | – | –

Row | Molecule | IC50 [1] [µM] | IC50 [µM] | also measured
22 | CCn1c([C@H](N)CC(C)C)nc2ccc(-c3ccncc3)cc21 [Example 33, (R)-1-(1-ethyl-6-(pyridin-4-yl)-1H-benzo[d]imidazol-2-yl)-3-methylbutan-1-amine] | – | 0.108 | –
23 | CC(C)C[C@@H](N)c1nc2cc(-c3ccncc3)c(F)cc2[nH]1 [Example 30, (R)-1-(6-fluoro-5-(pyridin-4-yl)-1H-benzo[d]imidazol-2-yl)-3-methylbutan-1-amine] | 0.088 | – | –
24 | CC(C)C[C@@H](N)c1nc2cc(-c3ccnc(N)c3)ccc2[nH]1 [Example 18, (R)-4-(2-(1-amino-3-methylbutyl)-1H-benzo[d]imidazol-5-yl)pyridin-2-amine] | 0.019 | – | –
25 | CC(C(N)c1nc2ccc(-c3ccncc3)cc2[nH]1)C(F)(F)F (single isomer, unassigned) [Example 52, 3,3,3-trifluoro-2-methyl-1-(6-(pyridin-4-yl)-1H-benzo[d]imidazol-2-yl)propan-1-amine] | – | 0.232 | –
26 | (R)-1-(5-(1H-pyrazolo[3, 4-b]pyridin-4-yl)-1H-benzo[d]imidazol-2-yl)-3-methylbutan-1-amine [Example 7] | 0.01 | – | –
27 | CN[C@H](CC(C)C)c1nc2ccc(-c3cnco3)cc2[nH]1 [Example 101, (R)-N,3-dimethyl-1-(6-(oxazol-5-yl)-1H-benzo[d]imidazol-2-yl) butan-1-amine] | 0.034 | – | –
28 | COc1cc(-c2cc3nc([C@H](N)CC(C)C)[nH]c3cc2OC)ccn1 [Example 28, (R)-1-(6-methoxy-5-(2-methoxypyridin-4-yl)-1H-benzo[d]imidazol-2-yl)-3-methylbutan-1-amine] | – | – | IC50 (read-out: AAK1 IC50): 2 µM
29 | CC(C)C[C@@H](N)c1nc2cc(-c3ccncc3F)ccc2[nH]1 [Example 10, (R)-1-(5-(3-fluoropyridin-4-yl)-1H-benzo[d]imidazol-2-yl)-3-methylbutan-1-amine] | 0.044 | – | –
30 | c1cc(-c2ccc3oc(CC4CCCC4)nc3c2)ccn1 [Example 90, 2-(cyclopentylmethyl)-5-(pyridin-4-yl)benzo[d]oxazole] | 0.818 | – | –
31 | CC(C)C[C@@H](N)c1nc2ccc(-c3ccncc3)cc2n1C(C)C [Example 44, (R)-1-(1-isopropyl-6-(pyridin-4-yl)-1H-benzo[d]imidazol-2-yl)-3-methylbutan-1-amine] | 0.124 | – | –
32 | CC(C)C[C@@H](N)c1nc2cc(-c3ccnc4[nH]ccc34)ccc2[nH]1 [Example 6, (R)-1-(5-(1H-pyrrolo[2,3-b]pyridin-4-yl)-1H-benzo[d]imidazol-2-yl)-3-methylbutan-1-amine] | – | 0.005 | –
33 | Cc1noc(C)c1-c1ccc2[nH]c([C@H](N)CC(C)C)nc2c1 [Example 78, (R)-1-(5-(3,5-dimethylisoxazol-4-yl)-1H-benzo[d]imidazol-2-yl)-3-methylbutan-1-amine] | – | 0.51 | –
34 | CC(C)C[C@H](N)c1nc2cc(-c3ccncc3)ccc2s1 [Example 97, (S)-3-methyl-1-(5-(pyridin-4-yl)benzo[d]thiazol-2-yl) butan-1-amine] | – | 0.116 | –
35 | CNC(CC(C)C)c1nc2cc(-c3cnco3)c(OC)cc2[nH]1 (stereo not drawn) [Example 107, 1-(6-methoxy-5-(oxazol-5-yl)-1H-benzo[d]imidazol-2-yl)-N,3-dimethylbutan-1-amine] | 0.016 | – | –
36 | CN[C@H](CC(C)C)c1nc2cc(-c3ccnc(N)c3)ccc2[nH]1 [Example 59, (R)-4-(2-(3-methyl-1-(methylamino)butyl)-1H-benzo[d]imidazol-5-yl)pyridin-2-amine] | 0.007 | – | –
37 | COc1cc2[nH]c([C@H](N)C3CCCC3)nc2cc1-c1cnco1 [Example 68, (R)-cyclopentyl (6-methoxy-5-(oxazol-5-yl)-1H-benzo[d]imidazol-2-yl) methanamine] | – | 0.05 | –
38 | CC(C)C[C@@H](N)c1nc2cc(-c3ccnc(F)c3)ccc2[nH]1 [Example 12, (R)-1-(5-(2-fluoropyridin-4-yl)-1H-benzo[d]imidazol-2-yl)-3-methylbutan-1-amine] | 0.148 | – | –
39 | CC(C)(F)CC(N)c1nc2cc(-c3ccncc3)ccc2[nH]1 (stereo not drawn) [Example 76, 3-fluoro-3-methyl-1-(5-(pyridin-4-yl)-1H-benzo[d]imidazol-2-yl)butan-1-amine] | 0.35 | – | –
40 | CC1CCCC(c2nc3ccc(-c4ccncc4)cc3[nH]2)C1 (stereo not drawn) [Example 81, 2-(3-methylcyclohexyl)-6-(pyridin-4-yl)-1H-benzo[d]imidazole] | – | 1.43 | –
41 | CC(C)C[C@@H](N)c1nc2ccc(-c3ccncc3)cc2n1CC(F)(F)F [Example 37, (R)-3-methyl-1-(6-(pyridin-4-yl)-1-(2,2,2-trifluoroethyl)-1H-benzo[d]imidazol-2-yl)butan-1-amine] | – | 0.019 | –
42 | CNC(CC(C)C)c1nc2cc(-c3ccncc3)c(OC)cc2[nH]1 (stereo not drawn) [Example 73, 1-(6-methoxy-5-(pyridin-4-yl)-1H-benzo[d]imidazol-2-yl)-N,3-dimethylbutan-1-amine] | – | 0.18 | –
